Measurements reported in ChEMBL document CHEMBL1201862, “PubChem BioAssay data set” (2004).
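Dose response: 5 concentrations. Exposure: 48 h. Format: 96-well plates. Endpoint: linear interpolation; highest concentration if not reached. Abbreviation: GI50, concentration required for 50% inhibition of growth.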 Activity calls are given as the source filed them. Cut-off read from the data, not from the text of the source: active = GI50 up to about 1.1 µM and inactive = higher.

Assays:
Assay in all cases: inhibition of tumour cell growth, NCI panel, 48 h
SF-295 = test system: SF-295
HT-29 = test system: HT-29
MOLT-4 = test system: MOLT-4
OVCAR-3 = test system: OVCAR-3
LXFL 529 = test system: LXFL 529
LOX IMVI = test system: LOX IMVI
TK-10 = test system: TK-10
HOP-18 = test system: HOP-18
SK-OV-3 = test system: SK-OV-3
SNB-78 = test system: SNB-78
IGROV-1 = test system: IGROV-1
KM12 = test system: KM12
NCI-H226 = test system: NCI-H226
HOP-92 = test system: HOP-92
ACHN = test system: ACHN
DMS-114 = test system: DMS-114
CCRF-CEM = test system: CCRF-CEM
HL-60 = test system: HL-60
A549 = test system: A549
SK-MEL-28 = test system: SK-MEL-28
OVCAR-4 = test system: OVCAR-4
UACC-257 = test system: UACC-257
SF-539 = test system: SF-539
NCI-H23 = test system: NCI-H23
UO-31 = test system: UO-31
SK-MEL-2 = test system: SK-MEL-2
A498 = test system: A498
SNB-19 = test system: SNB-19
M19-MEL = test system: M19-MEL
EKVX = test system: EKVX
M14 = test system: M14
DLD-1 = test system: DLD-1
UACC-62 = test system: UACC-62
HOP-62 = test system: HOP-62
DMS-273 = test system: DMS-273
RPMI-8226 = test system: RPMI-8226
RXF 393 = test system: RXF 393
K562 = test system: K562
OVCAR-8 = test system: OVCAR-8
SNB-75 = test system: SNB-75
SR = test system: SR
SN12C = test system: SN12C
KM-20L2 = test system: KM-20L2
COLO 205 = test system: COLO 205
Malme-3M = test system: Malme-3M
SF-268 = test system: SF-268
NCI-H460 = test system: NCI-H460
NCI-H522 = test system: NCI-H522
HCT-15 = test system: HCT-15
SW-620 = test system: SW-620
XF498 = test system: XF498
HCC 2998 = test system: HCC 2998
U-251 = test system: U-251
786-0 = test system: 786-0
HCT-116 = test system: HCT-116
CAKI-1 = test system: CAKI-1
PC-3 = test system: PC-3
MDA-N = test system: MDA-N
DU-145 = test system: DU-145
BT-549 = test system: BT-549
MDA-MB-231 = test system: MDA-MB-231
OVCAR-5 = test system: OVCAR-5
T47D = test system: T47D
SK-MEL-5 = test system: SK-MEL-5
MDA-MB-435 = test system: MDA-MB-435
Hs-578T = test system: Hs-578T

O=c1oc2cc(O)ccc2c2[nH]c3cc(O)ccc3c12
GI50 (SF-295): 66.8 µM (inactive)
GI50 (HT-29): 35.1 µM (inactive)
GI50 (MOLT-4): 34 µM (inactive)
GI50 (OVCAR-3): 20.7 µM (inactive)
GI50 (LXFL 529): 27.1 µM (inactive)
GI50 (LOX IMVI): 18.5 µM (inactive)
GI50 (TK-10): 36.3 µM (inactive)
GI50 (HOP-18): 50.5 µM (inactive)
GI50 (SK-OV-3): 22.2 µM (inactive)
GI50 (SNB-78): 43.7 µM (inactive)
GI50 (IGROV-1): 23.1 µM (inactive)
GI50 (KM12): 20.9 µM (inactive)
GI50 (NCI-H226): 21.4 µM (inactive)
GI50 (HOP-92): 32.1 µM (inactive)
GI50 (ACHN): 22.7 µM (inactive)
GI50 (DMS-114): 21.1 µM (inactive)
GI50 (CCRF-CEM): 30.8 µM (inactive)
GI50 (HL-60): 21.8 µM (inactive)
GI50 (A549): 42.7 µM (inactive)
GI50 (SK-MEL-28): 31.7 µM (inactive)
GI50 (OVCAR-4): 37.4 µM (inactive)
GI50 (UACC-257): 35.2 µM (inactive)
GI50 (SF-539): 18.9 µM (inactive)
GI50 (NCI-H23): 24.5 µM (inactive)
GI50 (UO-31): 26.2 µM (inactive)
GI50 (SK-MEL-2): 19.1 µM (inactive)
GI50 (A498): 36.1 µM (inactive)
GI50 (SNB-19): 18.6 µM (inactive)
GI50 (M19-MEL): 27.9 µM (inactive)
GI50 (EKVX): 26.5 µM (inactive)
GI50 (M14): 36.4 µM (inactive)
GI50 (DLD-1): 30.2 µM (inactive)
GI50 (UACC-62): 15.5 µM (inactive)
GI50 (HOP-62): 24.3 µM (inactive)
GI50 (DMS-273): 21.6 µM (inactive)
GI50 (RPMI-8226): 78 µM (inactive)
GI50 (RXF 393): 20.6 µM (inactive)
GI50 (K562): 45.9 µM (inactive)
GI50 (OVCAR-8): 27.2 µM (inactive)
GI50 (SNB-75): 16.3 µM (inactive)
GI50 (SR): 21.2 µM (inactive)
GI50 (SN12C): 33.3 µM (inactive)
GI50 (KM-20L2): 37.2 µM (inactive)
GI50 (COLO 205): 23.9 µM (inactive)
GI50 (Malme-3M): 32.6 µM (inactive)
GI50 (SF-268): 22.8 µM (inactive)
GI50 (NCI-H460): 33 µM (inactive)
GI50 (NCI-H522): 11.7 µM (inactive)
GI50 (HCT-15): 27 µM
GI50 (SW-620): 34 µM (inactive)
GI50 (XF498): 25.5 µM (inactive)
GI50 (HCC 2998): 22.5 µM (inactive)
GI50 (U-251): 21.4 µM (inactive)
GI50 (786-0): 30.8 µM (inactive)
GI50 (HCT-116): 17.4 µM (inactive)

CCOC(=O)C(CC(C)C)NC(=O)C(N)Cc1ccc(N(CCCl)CCCl)cc1 (centres undefined)
GI50 (SF-295): 4.39 µM (inactive)
GI50 (HT-29): 2.13 µM (inactive)
GI50 (CAKI-1): 3.11 µM (inactive)
GI50 (MOLT-4): 0.0637 µM (active)
GI50 (OVCAR-3): 1.95 µM (inactive)
GI50 (PC-3): 10.9 µM (inactive)
GI50 (LXFL 529): 2.8 µM (inactive)
GI50 (TK-10): 9.71 µM (inactive)
GI50 (MDA-N): 12.6 µM (inactive)
GI50 (HOP-18): 4.24 µM (inactive)
GI50 (SK-OV-3): 3.65 µM (inactive)
GI50 (DU-145): 4.9 µM (inactive)
GI50 (IGROV-1): 13.7 µM (inactive)
GI50 (KM12): 12.9 µM (inactive)
GI50 (NCI-H226): 9.71 µM (inactive)
GI50 (HOP-92): 3.18 µM (inactive)
GI50 (ACHN): 0.333 µM (active)
GI50 (DMS-114): 1.69 µM (inactive)
GI50 (CCRF-CEM): 0.104 µM (active)
GI50 (HL-60): 0.134 µM (active)
GI50 (A549): 6.95 µM (inactive)
GI50 (SK-MEL-28): 4.81 µM (inactive)
GI50 (OVCAR-4): 1.6 µM (inactive)
GI50 (UACC-257): 10.3 µM (inactive)
GI50 (BT-549): 15.8 µM (inactive)
GI50 (SF-539): 2.57 µM (inactive)
GI50 (NCI-H23): 1.57 µM (inactive)
GI50 (UO-31): 2.17 µM (inactive)
GI50 (SK-MEL-2): 4.83 µM (inactive)
GI50 (MDA-MB-231): 15.7 µM (inactive)
GI50 (A498): 13.9 µM (inactive)
GI50 (SNB-19): 12 µM (inactive)
GI50 (M19-MEL): 1.65 µM (inactive)
GI50 (EKVX): 17.9 µM (inactive)
GI50 (OVCAR-5): 11.8 µM (inactive)
GI50 (T47D): 2.35 µM (inactive)
GI50 (M14): 2.83 µM (inactive)
GI50 (DLD-1): 2.52 µM (inactive)
GI50 (UACC-62): 1.35 µM (inactive)
GI50 (HOP-62): 4.86 µM (inactive)
GI50 (DMS-273): 0.632 µM (active)
GI50 (RPMI-8226): 5.61 µM (inactive)
GI50 (RXF 393): 2.01 µM (inactive)
GI50 (SK-MEL-5): 5.62 µM (inactive)
GI50 (K562): 1.58 µM (inactive)
GI50 (OVCAR-8): 4.91 µM (inactive)
GI50 (SNB-75): 3.94 µM (inactive)
GI50 (SR): 0.0232 µM (active)
GI50 (SN12C): 5.6 µM (inactive)
GI50 (KM-20L2): 3.33 µM (inactive)
GI50 (COLO 205): 4.22 µM (inactive)
GI50 (MDA-MB-435): 16.9 µM (inactive)
GI50 (Malme-3M): 1.75 µM (inactive)
GI50 (SF-268): 3.56 µM (inactive)
GI50 (NCI-H460): 0.0478 µM (active)
GI50 (NCI-H522): 2.66 µM (inactive)
GI50 (HCT-15): 2.38 µM
GI50 (SW-620): 6.62 µM (inactive)
GI50 (Hs-578T): 18.6 µM (inactive)
GI50 (XF498): 1.52 µM (inactive)
GI50 (HCC 2998): 7.35 µM (inactive)
GI50 (U-251): 3.79 µM (inactive)
GI50 (786-0): 1.69 µM (inactive)
GI50 (HCT-116): 3.12 µM (inactive)
